Reference: PMC11249646, “Small-Molecule Disruptors of the Interaction between Calcium- and Integrin-Binding Protein 1 and Integrin αIIbβ3 as Novel Antiplatelet Agents” (ACS Pharmacology & Translational Science, 2024)

target: T1, CIB1 and αIIb interaction (CIB1-GST : F-αIIb peptide) (Homo sapiens, UniProt Q99828); assay: FP assay, 1536-well qHTS format (primary and confirmatory screen); assay type: binding; details: Table S3, confirmatory screen, YES/NO call
T1 construct: made in house; host or cells: BL-21 plus RIL cells (E. coli)
T1 sequence (Q99828 1-191): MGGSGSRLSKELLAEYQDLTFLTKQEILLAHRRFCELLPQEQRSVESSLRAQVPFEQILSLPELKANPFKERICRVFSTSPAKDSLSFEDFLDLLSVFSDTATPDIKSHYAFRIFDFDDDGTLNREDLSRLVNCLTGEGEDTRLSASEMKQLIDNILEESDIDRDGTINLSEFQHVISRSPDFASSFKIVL

Row | Confirm? (confirmatory screen) | SMILES
1 | YES | COc1cccc(C(=O)c2no[n+]([O-])c2C(=O)c2cccc(OC)c2)c1 [NCGC00351157-02]

same assay, conditions: Table S3, confirmatory screen, qHTS curve class; a negative sign marks inhibitory curves

Row | Curve Class (confirmatory screen) | SMILES
2 | 4 | C[C@@H](NCc1cc2ccccc2[nH]1)c1cccc2ccccc12.Cl [NCGC00344505-01]
3 | -1.4 | COc1cccc(C(=O)c2no[n+]([O-])c2C(=O)c2cccc(OC)c2)c1 [NCGC00351157-02]

Row | SMILES | Curve Class (confirmatory screen)
4 | N#Cc1ccc(NS(=O)(=O)c2ccc(NC(=O)Cc3ccc(F)c(Cl)c3)cc2)cc1.O=C(O)C(F)(F)F [NCGC00343891-01] | 3

same assay, conditions: Table S3, confirmatory screen; negative = inhibition

Row | Efficacy (%) (confirmatory screen) | SMILES
5 | -25 | C[C@@H](NCc1cc2ccccc2[nH]1)c1cccc2ccccc12.Cl [NCGC00344505-01]
6 | -52 | COc1cccc(C(=O)c2no[n+]([O-])c2C(=O)c2cccc(OC)c2)c1 [NCGC00351157-02]

Row | SMILES | Efficacy (%) (confirmatory screen)
7 | N#Cc1ccc(NS(=O)(=O)c2ccc(NC(=O)Cc3ccc(F)c(Cl)c3)cc2)cc1.O=C(O)C(F)(F)F [NCGC00343891-01] | 72

same assay, conditions: Table S3, confirmatory screen; read-out: IC50 [μM] (confirmatory screen)

Row | IC50 [µM] | SMILES
8 | 12.6 | COc1cccc(C(=O)c2no[n+]([O-])c2C(=O)c2cccc(OC)c2)c1 [NCGC00351157-02]

same assay, conditions: confirmatory screen

Row | SMILES | Efficacy (%) (confirmatory screen)
9 | Cc1ccc(S(=O)(=O)Nc2cnccc2C(=O)Nc2ccc(-c3nnn[nH]3)cc2)cc1.O=C(O)C(F)(F)F [NCGC00343837-01] | -63
10 | COc1ccc(S(=O)(=O)Nc2cnccc2C(=O)Nc2nc(-c3ccccc3)cs2)cc1.O=C(O)C(F)(F)F [NCGC00344944-01] | -81

same assay, conditions: confirmatory screen, YES/NO

Row | SMILES | Confirm? (confirmatory screen)
11 | Cc1ccc(S(=O)(=O)Nc2cnccc2C(=O)Nc2ccc(-c3nnn[nH]3)cc2)cc1.O=C(O)C(F)(F)F [NCGC00343837-01] | YES
12 | COc1ccc(S(=O)(=O)Nc2cnccc2C(=O)Nc2nc(-c3ccccc3)cs2)cc1.O=C(O)C(F)(F)F [NCGC00344944-01] | YES

same assay, conditions: confirmatory screen, qHTS curve class; negative sign = inhibitory curve

Row | SMILES | Curve Class (confirmatory screen)
13 | Cc1ccc(S(=O)(=O)Nc2cnccc2C(=O)Nc2ccc(-c3nnn[nH]3)cc2)cc1.O=C(O)C(F)(F)F [NCGC00343837-01] | -2.4
14 | COc1ccc(S(=O)(=O)Nc2cnccc2C(=O)Nc2nc(-c3ccccc3)cs2)cc1.O=C(O)C(F)(F)F [NCGC00344944-01] | -2.2

same assay, conditions: confirmatory screen; read-out: IC50 [μM] (confirmatory screen)

Row | SMILES | IC50 [µM]
15 | Cc1ccc(S(=O)(=O)Nc2cnccc2C(=O)Nc2ccc(-c3nnn[nH]3)cc2)cc1.O=C(O)C(F)(F)F [NCGC00343837-01] | 35.5

same assay, conditions: qHTS FP screen hits, Table S2; negative = inhibition

Row | SMILES | Efficacy (%)
16 | COc1ccc(S(=O)(=O)Nc2cnccc2C(=O)Nc2nc(-c3ccccc3)cs2)cc1.O=C(O)C(F)(F)F [NCGC00344944-01] | -52

same assay, conditions: qHTS FP screen hits, Table S2; one class per curve where COUNT > 1; negative sign = inhibitory curve

Row | SMILES | Curve Class
17 | COc1ccc(S(=O)(=O)Nc2cnccc2C(=O)Nc2nc(-c3ccccc3)cs2)cc1.O=C(O)C(F)(F)F [NCGC00344944-01] | -2.2

same assay, conditions: qHTS FP screen hits, Table S2; read-out: IC50

Row | SMILES | IC50 [µM]
18 | COc1ccc(S(=O)(=O)Nc2cnccc2C(=O)Nc2nc(-c3ccccc3)cs2)cc1.O=C(O)C(F)(F)F [NCGC00344944-01] | 39.8

same assay, conditions: qHTS primary screen hits, Table S2; negative = inhibition

Row | SMILES | Efficacy (%)
19 | Cc1ccc(S(=O)(=O)Nc2cnccc2C(=O)Nc2ccc(-c3nnn[nH]3)cc2)cc1.O=C(O)C(F)(F)F [NCGC00343837-01] | -24
20 | N#Cc1ccc(NS(=O)(=O)c2ccc(NC(=O)Cc3ccc(F)c(Cl)c3)cc2)cc1.O=C(O)C(F)(F)F [NCGC00343891-01] | -15
21 | C[C@@H](NCc1cc2ccccc2[nH]1)c1cccc2ccccc12.Cl [NCGC00344505-01] | -31
22 | COc1cccc(C(=O)c2no[n+]([O-])c2C(=O)c2cccc(OC)c2)c1 [NCGC00351157-02] | -53

same assay, conditions: qHTS primary screen hits, Table S2; negative sign = inhibitory curve

Row | SMILES | Curve Class
23 | Cc1ccc(S(=O)(=O)Nc2cnccc2C(=O)Nc2ccc(-c3nnn[nH]3)cc2)cc1.O=C(O)C(F)(F)F [NCGC00343837-01] | -2.4

same assay, conditions: qHTS primary screen hits, Table S2; negative sign = inhibitory curve; several classes where COUNT > 1

Row | SMILES | Curve Class
24 | N#Cc1ccc(NS(=O)(=O)c2ccc(NC(=O)Cc3ccc(F)c(Cl)c3)cc2)cc1.O=C(O)C(F)(F)F [NCGC00343891-01] | -1.4
25 | C[C@@H](NCc1cc2ccccc2[nH]1)c1cccc2ccccc12.Cl [NCGC00344505-01] | -2.4

same assay, conditions: qHTS primary screen hits, Table S2; read-out: IC50

Row | SMILES | IC50 [µM]
26 | Cc1ccc(S(=O)(=O)Nc2cnccc2C(=O)Nc2ccc(-c3nnn[nH]3)cc2)cc1.O=C(O)C(F)(F)F [NCGC00343837-01] | 31.6
27 | N#Cc1ccc(NS(=O)(=O)c2ccc(NC(=O)Cc3ccc(F)c(Cl)c3)cc2)cc1.O=C(O)C(F)(F)F [NCGC00343891-01] | 4
28 | C[C@@H](NCc1cc2ccccc2[nH]1)c1cccc2ccccc12.Cl [NCGC00344505-01] | 21.5
29 | COc1cccc(C(=O)c2no[n+]([O-])c2C(=O)c2cccc(OC)c2)c1 [NCGC00351157-02] | 22.2

target: T2, GST-CIB1 : F-scrambled peptide (Homo sapiens, UniProt Q99828); assay: FP scrambled-peptide counter screen, 1536-well format; assay type: binding; details: Table S3, counterscreen, qHTS curve class; a negative sign marks inhibitory curves
T2 construct: made in house; host or cells: BL-21 plus RIL cells (E. coli)
T2 sequence (Q99828 1-191): T1 sequence (Q99828 1-191)

Row | Curve Class (counterscreen) | SMILES
30 | 4 | C[C@@H](NCc1cc2ccccc2[nH]1)c1cccc2ccccc12.Cl [NCGC00344505-01]
31 | -1.2 | COc1cccc(C(=O)c2no[n+]([O-])c2C(=O)c2cccc(OC)c2)c1 [NCGC00351157-02]

Row | SMILES | Curve Class (counterscreen)
32 | N#Cc1ccc(NS(=O)(=O)c2ccc(NC(=O)Cc3ccc(F)c(Cl)c3)cc2)cc1.O=C(O)C(F)(F)F [NCGC00343891-01] | 3

same assay, conditions: Table S3, counterscreen; negative = inhibition

Row | Efficacy (%) (counterscreen) | SMILES
33 | -21 | C[C@@H](NCc1cc2ccccc2[nH]1)c1cccc2ccccc12.Cl [NCGC00344505-01]
34 | -60 | COc1cccc(C(=O)c2no[n+]([O-])c2C(=O)c2cccc(OC)c2)c1 [NCGC00351157-02]

Row | SMILES | Efficacy (%) (counterscreen)
35 | N#Cc1ccc(NS(=O)(=O)c2ccc(NC(=O)Cc3ccc(F)c(Cl)c3)cc2)cc1.O=C(O)C(F)(F)F [NCGC00343891-01] | 154

same assay, conditions: Table S3, counterscreen; read-out: IC50 [μM] (counterscreen)

Row | SMILES | IC50 [µM]
36 | N#Cc1ccc(NS(=O)(=O)c2ccc(NC(=O)Cc3ccc(F)c(Cl)c3)cc2)cc1.O=C(O)C(F)(F)F [NCGC00343891-01] | 89.1
37 | COc1cccc(C(=O)c2no[n+]([O-])c2C(=O)c2cccc(OC)c2)c1 [NCGC00351157-02] | 17.8

same assay, conditions: counterscreen

Row | SMILES | Efficacy (%) (counterscreen)
38 | Cc1ccc(S(=O)(=O)Nc2cnccc2C(=O)Nc2ccc(-c3nnn[nH]3)cc2)cc1.O=C(O)C(F)(F)F [NCGC00343837-01] | -40
39 | COc1ccc(S(=O)(=O)Nc2cnccc2C(=O)Nc2nc(-c3ccccc3)cs2)cc1.O=C(O)C(F)(F)F [NCGC00344944-01] | -81

same assay, conditions: counterscreen, YES/NO

Row | SMILES | Confirm? (counterscreen)
40 | Cc1ccc(S(=O)(=O)Nc2cnccc2C(=O)Nc2ccc(-c3nnn[nH]3)cc2)cc1.O=C(O)C(F)(F)F [NCGC00343837-01] | YES

same assay, conditions: counterscreen, qHTS curve class; negative sign = inhibitory curve

Row | SMILES | Curve Class (counterscreen)
41 | Cc1ccc(S(=O)(=O)Nc2cnccc2C(=O)Nc2ccc(-c3nnn[nH]3)cc2)cc1.O=C(O)C(F)(F)F [NCGC00343837-01] | 4
42 | COc1ccc(S(=O)(=O)Nc2cnccc2C(=O)Nc2nc(-c3ccccc3)cs2)cc1.O=C(O)C(F)(F)F [NCGC00344944-01] | -2.2

same assay, conditions: counterscreen; read-out: IC50 [μM] (counterscreen)

Row | SMILES | IC50 [µM]
43 | COc1ccc(S(=O)(=O)Nc2cnccc2C(=O)Nc2nc(-c3ccccc3)cs2)cc1.O=C(O)C(F)(F)F [NCGC00344944-01] | 44.7
